Assay [1] concerns C57BL/6 hepatocytes. It is filed as cell-based. Conditions: 200 nM, CTL-treated asmase−/− hepatocytes. The method, then:
Whereas Fas-mediated apoptotic death receptor activation requires generation of ceramide-rich platforms in some cell systems, CTL-induced platform generation was assessed in asmase^+/+ and asmase^−/− hepatocytes in the ex vivo model of GvHD. Alloactivated T cells induced rapid generation of ceramide-rich platforms on the surface of the target hepatocytes 10 min following co-incubation (FIG. 16C). Platform generation increased within one minute, peaked at 10 min, and persisted for over 60 min (FIG. 16D). Fas, required for apoptosis in this system, concentrated within the ceramide-rich platform as determined by confocal microscopy.
Platforms were detected as previously described. […]; Sigma-Aldrich) for 45 min at 4° C., washed twice in PBS containing 0.1% Triton X-100 and mounted in fluorescent mounting medium (Dako, Carpenteria CA). Fluorescence was detected using an Axiovert S-100 Zeiss fluorescence microscope equipped with a SPOT digital camera. The percentage of cells containing platforms, i.e. those in which the fluorescence condenses onto less than 15% of the cell surface, was determined by counting 150-250 cells per point. Alternately, platforms were identified using a mouse monoclonal anti-ceramide antibody MID 15B4 IgM (1:50 dilution, Alexis Biochemicals), mouse monoclonal anti-Fas CH-11 IgM (1:500 dilution, Upstate Biotechnology) or polyclonal rabbit anti-ASMase antibody 1598 (1:100 dilution) and detected using Cy3-conjugated anti-mouse or anti-rabbit IgM (1:500 dilution, Roche Molecular Biochemicals), respectively. Rabbit polyclonal anti-CD46 (1:1000 dilution, Santa Cruz Biotechnology, Santa Cruz CA) was used as a negative control. In some studies, confocal images were obtained using a Leica TCS SPZ upright confocal microscope. Alternatively, 0.5×10^6hepatocytes were stimulated for the indicated times with CTLs and platform formation was assessed as described.

For assay [2], the system named is splenic T cells. The experiment in a line: Activation-induced cell death (AICD) assay, T cell apoptosis. To be noted: 500 nM; 16 hr. It is filed as cell-based, mouse. From the text: To define a role for target cell ASMase in AICD, asmase^+/+, asmase^−/− or MRL.1pr (FasR^−/−) T cells were stimulated for 24 hr with 10 microgam/ml ConA, washed, rested in medium containing 20 U/ml rIL-2 for 24 hr, and finally AICD was initiated by restimulation in medium containing 20 U/ml rIL-2 and increasing concentrations of plate bound anti-CD3 mAb for 24 hr. AICD induction by anti-CD3 mAb conferred ceramide-rich platform generation 4 hr following stimulation (FIG. 19D), evident in 26.4±1.6% of the population of asmase^+/+ T cells compared to 5.1±1.0% of asmase^−/− T cells (p<0.005). Confocal analysis identified colocalization of the sphingolipid GM1 (FIG. 19E) and Fas within ceramide-rich platforms in asmase^+/+ T cells.
To characterize the impact of platform generation on AICD, asmase^+/+ and asmase^−/− T cells were induced to undergo AICD and apoptosis was quantified 16 hr thereafter. Apoptosis in asmase^+/+ T cells was anti-CD3 mAb dose-dependent, reaching 32.9±5.2% apoptosis 16 hr post induction (FIG. 19F). […]
Harvested splenocytes were enriched for T lymphocytes by nylon wool passage, resulting in >90% purity based upon FITC-CD3 mAb staining by flow cytometry. […] Cells were subsequently fixed, stained with 25 μl of 24 μg/ml bis-benzimide trihydrochloride solution (Hoechst #33258; Sigma-Aldrich, Milwaukee Wisc.) and apoptosis was quantified by fluorescence microscopy, as above.

The subject of assay [3] is splenic T cells. As to the kind of experiment: Platform generation in T cells after AICD induction. Conditions: 500 nM; not shown.
In assay [4] the test system is C57BL/6 splenocytes. The experiment in a line: Platform generation on target splenocytes coincubated with MLR-primed CTLs. Conditions: 500 nM.

In the case of `CCCCCCCCCCCCC/C=C/[C@@H](O)[C@H](CO)NC(=O)CCCCCCCCCCCCCCC` [C16-ceramide], the “platform formation, % of cells” value in assay [1] came out at 46.3±1.3%. For the same molecule, the “apoptosis of asmase−/− T cells stimulated to undergo AICD” value in assay [2] is “completely restored”. Also, the “platform generation in asmase−/− T cells stimulated to undergo AICD” value in assay [3] was “completely restored”. The “platform generation on asmase−/− target splenocytes” value in assay [4] is “restored”.
